Test results published in patent US20250354111A1, “BOVINE SEX-SORTED SPERM SORTING SOLUTION MEDIATED BY SMALL MOLECULE COMPOUND AND ITS APPLICATION” (Inner Mongolia University, priority 2024, published 2025).

Tested on: bovine sperm
Assay: Effect of creatine concentration on sorting of X and Y sperm in sorting solution with 24e drug (Example 2)
Format: cell-based
Conditions: creatine 500 μM with 24e drug 0.3 μM; 37° C., 60 min; 6x107 sperm/mL
Method: Based on the exploration in Example 1 that the range of 0.27 μM-0.33 μM is the optimal concentration range for the 24e drug to sort bovine sperm, the effect of creatine on the sperm sorting effect was examined by incubating bovine sperm with creatine added to the sorting solution with a 24e drug concentration of 0.3 μM.
Fresh bovine semen provided by the Grassland Livestock Germplasm Innovation and Breeding Base of Inner Mongolia University was used, washed with in vitro fertilization solution, and after dilution, the sperm density was 6x107 sperm/mL. At 37° C., the 24e drug was added to the sperm sorting protection solution to make the final concentration of the 24e drug 0.3 μM. On this basis, creatine was added, and bovine sperm was incubated for 60 min. The amounts of creatine used were 0 μM (control group), 200 μM, 300 μM, 400 μM, 500 µM, and 600 μM. The sorting effect of sperm at each creatine concentration was obtained by analyzing the sperm in the upper and lower layers, as shown in FIG. 2. […] In the upper layer of sperm, the percentage of X sperm is 22%, and the percentage of Y sperm is 78%. Creatine can enhance the activity of sperm, so that Y sperm floats up faster, while the activity of X sperm is inhibited by the 24e drug and sinks, making the stratification more obvious and improving the sorting efficiency. When the sperm density is 6x10^7 sperm/mL, the concentration of the 24e drug is 0.27 μM-0.33 μM, and the creatine concentration is 500 μM-600 μM, the sorting effect on bovine sperm is the best.

## CN(CC(=O)O)C(=N)N [creatine]
  percentage of X sperm in the lower layer of sorted sperm: 70.33%
  percentage of X sperm in the upper layer of sperm: 22%
  percentage of Y sperm in the lower layer of sorted sperm: 29.67%
  percentage of Y sperm in the upper layer of sperm: 78%
